Test results published in patent publication US9458113B2 (Boehringer Ingelheim International GmbH, priority 2014, dated 2016).
pIC50: −log10 of the molar value.

What follows are compounds tested against Human neutrophil elastase (Homo sapiens (Human), UniProt P08246) (assay: Human Neutrophil Elastase Assay). Conditions: substrate MeOSuc-Ala-Ala-Pro-Val-AMC 250 μM, pH 7.5.
Assay type: biochemical

Human neutrophil elastase, sequence (P08246 30-247): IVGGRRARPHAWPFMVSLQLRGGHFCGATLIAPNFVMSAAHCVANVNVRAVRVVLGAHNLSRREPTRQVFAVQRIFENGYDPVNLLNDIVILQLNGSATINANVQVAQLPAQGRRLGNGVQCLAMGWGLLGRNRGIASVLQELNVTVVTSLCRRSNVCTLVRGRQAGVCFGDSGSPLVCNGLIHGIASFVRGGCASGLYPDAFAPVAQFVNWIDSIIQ

Point of comparison: `CN1C(=O)N(c2cccc(C(F)(F)F)c2)C2=C(C(=O)CC2)C1c1ccc(C#N)cc1C(=O)NC1COC1` (stereo not drawn) [Example 1.12], pIC50 8.28. Against it:
- CN1C(=O)N(c2cccc(C(F)(F)F)c2)C2=C(C(=O)CCC2)C1c1ccc(C#N)cc1C(N)=O (single isomer, unassigned) [Example 7a, 5-Cyano-2-[3-methyl-2,5-dioxo-1-(3-trifluoromethyl-phenyl)-1,2,3,4,5,6,7,8-octahydro-quinazolin-4-yl]-benzamide] — higher, > 9.00
- CN1C(=O)N(c2cccc(C(F)(F)F)c2)C2=C(C(=O)CC2)C1c1ccc(C#N)cc1C(N)=O (stereo not drawn) [Example 1, 5-Cyano-2-[3-methyl-2,5-dioxo-1-(3-trifluoromethyl-phenyl)-2,3,4,5,6,7-hexahydro-1H-cyclopentapyrimidin-4-yl]-benzamide] — the same, 8.28
- CCNC(=O)c1cc(C#N)ccc1C1C2=C(CCC2=O)N(c2cccc(C(F)(F)F)c2)C(=O)N1C (stereo not drawn) [Example 1.2] — within 0.2 log units, 8.26
- CN(C)C(=O)c1cc(C#N)ccc1C1C2=C(CCC2=O)N(c2cccc(C(F)(F)F)c2)C(=O)N1C (stereo not drawn) [Example 1.3] — within 0.2 log units, 8.27
- C#CCNC(=O)c1cc(C#N)ccc1C1C2=C(CCC2=O)N(c2cccc(C(F)(F)F)c2)C(=O)N1C (stereo not drawn) [Example 1.4] — within 0.2 log units, 8.43
- CN1C(=O)N(c2cccc(C(F)(F)F)c2)C2=C(C(=O)CC2)C1c1ccc(C#N)cc1C(=O)NCC#N (stereo not drawn) [Example 1.5] — 0.23 log units higher, 8.51
- CN1C(=O)N(c2cccc(C(F)(F)F)c2)C2=C(C(=O)CC2)C1c1ccc(C#N)cc1C(=O)NC1CC1 (stereo not drawn) [Example 1.6] — within 0.2 log units, 8.20
- CN1C(=O)N(c2cccc(C(F)(F)F)c2)C2=C(C(=O)CC2)C1c1ccc(C#N)cc1C(=O)N1CCC1 (stereo not drawn) [Example 1.7] — 0.38 log units higher, 8.66
- CN1C(=O)N(c2cccc(C(F)(F)F)c2)C2=C(C(=O)CC2)C1c1ccc(C#N)cc1C(=O)NCCO (stereo not drawn) [Example 1.8] — within 0.2 log units, 8.24
- CN1C(=O)N(c2cccc(C(F)(F)F)c2)C2=C(C(=O)CC2)C1c1ccc(C#N)cc1C(=O)NCCF (stereo not drawn) [Example 1.9] — within 0.2 log units, 8.26
- CN1C(=O)N(c2cccc(C(F)(F)F)c2)C2=C(C(=O)CC2)C1c1ccc(C#N)cc1C(=O)N1CCCC1 (stereo not drawn) [Example 1.10] — within 0.2 log units, 8.47
- CN1C(=O)N(c2cccc(C(F)(F)F)c2)C2=C(C(=O)CC2)C1c1ccc(C#N)cc1C(=O)N1CC(O)C1 (stereo not drawn) [Example 1.11] — 0.32 log units higher, 8.60
- CN(CCO)C(=O)c1cc(C#N)ccc1C1C2=C(CCC2=O)N(c2cccc(C(F)(F)F)c2)C(=O)N1C (stereo not drawn) [Example 1.13] — 0.26 log units higher, 8.54
- COCCNC(=O)c1cc(C#N)ccc1C1C2=C(CCC2=O)N(c2cccc(C(F)(F)F)c2)C(=O)N1C (stereo not drawn) [Example 1.14] — within 0.2 log units, 8.19
- CN1C(=O)N(c2cccc(C(F)(F)F)c2)C2=C(C(=O)CC2)C1c1ccc(C#N)cc1C(=O)NCCCO (stereo not drawn) [Example 1.15] — within 0.2 log units, 8.30
- CN1C(=O)N(c2cccc(C(F)(F)F)c2)C2=C(C(=O)CC2)C1c1ccc(C#N)cc1C(=O)NCC(F)F (stereo not drawn) [Example 1.16] — within 0.2 log units, 8.22
- CN1C(=O)N(c2cccc(C(F)(F)F)c2)C2=C(C(=O)CC2)C1c1ccc(C#N)cc1C(=O)NC1CCOC1 (stereo not drawn) [Example 1.18] — within 0.2 log units, 8.16
- CN1C(=O)N(c2cccc(C(F)(F)F)c2)C2=C(C(=O)CC2)C1c1ccc(C#N)cc1C(=O)NCC(C)(C)O (stereo not drawn) [Example 1.19] — 0.26 log units lower, 8.02
- COCCCNC(=O)c1cc(C#N)ccc1C1C2=C(CCC2=O)N(c2cccc(C(F)(F)F)c2)C(=O)N1C (stereo not drawn) [Example 1.20] — within 0.2 log units, 8.24
- CN1C(=O)N(c2cccc(C(F)(F)F)c2)C2=C(C(=O)CC2)C1c1ccc(C#N)cc1C(=O)NCC(F)(F)F (stereo not drawn) [Example 1.21] — within 0.2 log units, 8.15
- CN1C(=O)N(c2cccc(C(F)(F)F)c2)C2=C(C(=O)CC2)C1c1ccc(C#N)cc1C(=O)N1CCC(O)CC1 (stereo not drawn) [Example 1.22] — 0.29 log units lower, 7.99
- CN1C(=O)N(c2cccc(C(F)(F)F)c2)C2=C(C(=O)CC2)C1c1ccc(C#N)cc1C(=O)NC1CCOCC1 (stereo not drawn) [Example 1.23] — 0.20 log units lower, 8.08
- COCCCN(C)C(=O)c1cc(C#N)ccc1C1C2=C(CCC2=O)N(c2cccc(C(F)(F)F)c2)C(=O)N1C (stereo not drawn) [Example 1.24] — 0.20 log units higher, 8.48
- CN1CCC(NC(=O)c2cc(C#N)ccc2C2C3=C(CCC3=O)N(c3cccc(C(F)(F)F)c3)C(=O)N2C)CC1 (stereo not drawn) [Example 1.25] — within 0.2 log units, 8.10
- CN1C(=O)N(c2cccc(C(F)(F)F)c2)C2=C(C(=O)CC2)C1c1ccc(C#N)cc1C(=O)NCCS(C)(=O)=O (stereo not drawn) [Example 1.26] — within 0.2 log units, 8.34
- CN(Cc1cnn(C)c1)C(=O)c1cc(C#N)ccc1C1C2=C(CCC2=O)N(c2cccc(C(F)(F)F)c2)C(=O)N1C (stereo not drawn) [Example 1.27] — higher, > 9.00
- CN1C(=O)N(c2cccc(C(F)(F)F)c2)C2=C(C(=O)CC2)C1c1ccc(C#N)cc1C(=O)NC1CCS(=O)(=O)C1 (stereo not drawn) [Example 1.28] — within 0.2 log units, 8.37
- CN(C)CCNC(=O)c1cc(C#N)ccc1C1C2=C(CCC2=O)N(c2cccc(C(F)(F)F)c2)C(=O)N1C (stereo not drawn) [Example 1.29] — within 0.2 log units, 8.32
- CN1CCC(NC(=O)c2cc(C#N)ccc2C2C3=C(CCC3=O)N(c3cccc(C(F)(F)F)c3)C(=O)N2C)C1 (stereo not drawn) [Example 1.30] — within 0.2 log units, 8.13
- CN1C(=O)N(c2cccc(C(F)(F)F)c2)C2=C(C(=O)CC2)C1c1ccc(C#N)cc1C(=O)N1CCN(C2CC2)CC1 (stereo not drawn) [Example 1.33] — 0.30 log units lower, 7.98
- CN1C(=O)N(c2cccc(C(F)(F)F)c2)C2=C(C(=O)CC2)C1c1ccc(C#N)cc1C(=O)N1CCN2CCOCC2C1 (stereo not drawn) [Example 1.35] — 0.49 log units lower, 7.79
- CN1C(=O)N(c2cccc(C(F)(F)F)c2)C2=C(C(=O)CC2)C1c1ccc(C#N)cc1C(=O)NCc1ccco1 (stereo not drawn) [Example 1.36] — 0.38 log units higher, 8.66
- CN1C(=O)N(c2cccc(C(F)(F)F)c2)C2=C(C(=O)CC2)C1c1ccc(C#N)cc1C(=O)NCc1ccoc1 (stereo not drawn) [Example 1.37] — within 0.2 log units, 8.47
- CN1C(=O)N(c2cccc(C(F)(F)F)c2)C2=C(C(=O)CC2)C1c1ccc(C#N)cc1C(=O)NCc1cn[nH]c1 (stereo not drawn) [Example 1.38] — within 0.2 log units, 8.30
- CN1C(=O)N(c2cccc(C(F)(F)F)c2)C2=C(C(=O)CC2)C1c1ccc(C#N)cc1C(=O)NCc1ccno1 (stereo not drawn) [Example 1.39] — 0.44 log units higher, 8.72
- CN1C(=O)N(c2cccc(C(F)(F)F)c2)C2=C(C(=O)CC2)C1c1ccc(C#N)cc1C(=O)NCc1cnco1 (stereo not drawn) [Example 1.40] — 0.72 log units higher, 9.00
- CN1C(=O)N(c2cccc(C(F)(F)F)c2)C2=C(C(=O)CC2)C1c1ccc(C#N)cc1C(=O)NCc1ncco1 (stereo not drawn) [Example 1.41] — within 0.2 log units, 8.42
- CN1C(=O)N(c2cccc(C(F)(F)F)c2)C2=C(C(=O)CC2)C1c1ccc(C#N)cc1C(=O)NCc1cnoc1 (stereo not drawn) [Example 1.42] — 0.44 log units higher, 8.72
- CN1C(=O)N(c2cccc(C(F)(F)F)c2)C2=C(C(=O)CC2)C1c1ccc(C#N)cc1C(=O)NCc1ccon1 (stereo not drawn) [Example 1.43] — 0.42 log units higher, 8.70
- CN1C(=O)N(c2cccc(C(F)(F)F)c2)C2=C(C(=O)CC2)C1c1ccc(C#N)cc1C(=O)NCc1cocn1 (stereo not drawn) [Example 1.44] — within 0.2 log units, 8.47
- CN1C(=O)N(c2cccc(C(F)(F)F)c2)C2=C(C(=O)CC2)C1c1ccc(C#N)cc1C(=O)NCc1ccccc1 (stereo not drawn) [Example 1.45] — the same, 8.28
- CN1C(=O)N(c2cccc(C(F)(F)F)c2)C2=C(C(=O)CC2)C1c1ccc(C#N)cc1C(=O)NCc1cccnc1 (stereo not drawn) [Example 1.46] — within 0.2 log units, 8.41
- CN1C(=O)N(c2cccc(C(F)(F)F)c2)C2=C(C(=O)CC2)C1c1ccc(C#N)cc1C(=O)NCc1ccccn1 (stereo not drawn) [Example 1.47] — within 0.2 log units, 8.38
- CN1C(=O)N(c2cccc(C(F)(F)F)c2)C2=C(C(=O)CC2)C1c1ccc(C#N)cc1C(=O)NCc1ccncc1 (stereo not drawn) [Example 1.48] — within 0.2 log units, 8.39
- CN1C(=O)N(c2cccc(C(F)(F)F)c2)C2=C(C(=O)CC2)C1c1ccc(C#N)cc1C(=O)NCc1ccnnc1 (stereo not drawn) [Example 1.49] — within 0.2 log units, 8.30
- CN1C(=O)N(c2cccc(C(F)(F)F)c2)C2=C(C(=O)CC2)C1c1ccc(C#N)cc1C(=O)NCc1cccnn1 (stereo not drawn) [Example 1.50] — 0.26 log units higher, 8.54
- CC(NC(=O)c1cc(C#N)ccc1C1C2=C(CCC2=O)N(c2cccc(C(F)(F)F)c2)C(=O)N1C)c1ccco1 (stereo not drawn) [Example 1.51] — within 0.2 log units, 8.18
- CN1C(=O)N(c2cccc(C(F)(F)F)c2)C2=C(C(=O)CC2)C1c1ccc(C#N)cc1C(=O)NCc1cncn1C (stereo not drawn) [Example 1.52] — within 0.2 log units, 8.38
- CN1C(=O)N(c2cccc(C(F)(F)F)c2)C2=C(C(=O)CC2)C1c1ccc(C#N)cc1C(=O)NCc1ccn(C)n1 (stereo not drawn) [Example 1.53] — 0.38 log units higher, 8.66
- CN1C(=O)N(c2cccc(C(F)(F)F)c2)C2=C(C(=O)CC2)C1c1ccc(C#N)cc1C(=O)NCc1cn(C)cn1 (stereo not drawn) [Example 1.54] — within 0.2 log units, 8.16
- CN1C(=O)N(c2cccc(C(F)(F)F)c2)C2=C(C(=O)CC2)C1c1ccc(C#N)cc1C(=O)NCc1cnn(C)c1 (stereo not drawn) [Example 1.55] — within 0.2 log units, 8.32
- CN1C(=O)N(c2cccc(C(F)(F)F)c2)C2=C(C(=O)CC2)C1c1ccc(C#N)cc1C(=O)NCc1ccnn1C (stereo not drawn) [Example 1.56] — within 0.2 log units, 8.27
- CN(Cc1cn[nH]c1)C(=O)c1cc(C#N)ccc1C1C2=C(CCC2=O)N(c2cccc(C(F)(F)F)c2)C(=O)N1C (stereo not drawn) [Example 1.57] — higher, > 9.00
- CN1C(=O)N(c2cccc(C(F)(F)F)c2)C2=C(C(=O)CC2)C1c1ccc(C#N)cc1C(=O)NCc1nccn1C (stereo not drawn) [Example 1.58] — 0.34 log units higher, 8.62
- CN(Cc1ccon1)C(=O)c1cc(C#N)ccc1C1C2=C(CCC2=O)N(c2cccc(C(F)(F)F)c2)C(=O)N1C (stereo not drawn) [Example 1.59] — 0.68 log units higher, 8.96
- CN(Cc1ccno1)C(=O)c1cc(C#N)ccc1C1C2=C(CCC2=O)N(c2cccc(C(F)(F)F)c2)C(=O)N1C (stereo not drawn) [Example 1.60] — higher, > 9.00
- CN1C(=O)N(c2cccc(C(F)(F)F)c2)C2=C(C(=O)CC2)C1c1ccc(C#N)cc1C(=O)NCc1nncn1C (stereo not drawn) [Example 1.61] — within 0.2 log units, 8.22
- CN1C(=O)N(c2cccc(C(F)(F)F)c2)C2=C(C(=O)CC2)C1c1ccc(C#N)cc1C(=O)NCc1nnnn1C (stereo not drawn) [Example 1.62] — 0.32 log units higher, 8.60
- CN1C(=O)N(c2cccc(C(F)(F)F)c2)C2=C(C(=O)CC2)C1c1ccc(C#N)cc1C(=O)N1Cc2ccncc2C1 (stereo not drawn) [Example 1.63] — within 0.2 log units, 8.41
- CN1C(=O)N(c2cccc(C(F)(F)F)c2)C2=C(C(=O)CC2)C1c1ccc(C#N)cc1C(=O)NCc1ccc(C#N)o1 (stereo not drawn) [Example 1.64] — within 0.2 log units, 8.16
- CN(Cc1ccncc1)C(=O)c1cc(C#N)ccc1C1C2=C(CCC2=O)N(c2cccc(C(F)(F)F)c2)C(=O)N1C (stereo not drawn) [Example 1.65] — 0.49 log units higher, 8.77
- CN1C(=O)N(c2cccc(C(F)(F)F)c2)C2=C(C(=O)CC2)C1c1ccc(C#N)cc1C(=O)N1CCn2cncc2C1 (stereo not drawn) [Example 1.66] — within 0.2 log units, 8.15
